The results in this text go back to EP3388439A1, “BIOTIN-CONJUGATED N-ACETYL GLYCOL SPLIT HEPARIN” (Leadiant Biosciences SA, priority 2017, dated 2018).

As usually defined, the IC50 is the midpoint of a concentration-inhibition curve.

In experiment [1] the target is T1, heparanase (Homo sapiens, UniProt Q9Y251).
T1 sequence (Q9Y251 158-543 limits assumed): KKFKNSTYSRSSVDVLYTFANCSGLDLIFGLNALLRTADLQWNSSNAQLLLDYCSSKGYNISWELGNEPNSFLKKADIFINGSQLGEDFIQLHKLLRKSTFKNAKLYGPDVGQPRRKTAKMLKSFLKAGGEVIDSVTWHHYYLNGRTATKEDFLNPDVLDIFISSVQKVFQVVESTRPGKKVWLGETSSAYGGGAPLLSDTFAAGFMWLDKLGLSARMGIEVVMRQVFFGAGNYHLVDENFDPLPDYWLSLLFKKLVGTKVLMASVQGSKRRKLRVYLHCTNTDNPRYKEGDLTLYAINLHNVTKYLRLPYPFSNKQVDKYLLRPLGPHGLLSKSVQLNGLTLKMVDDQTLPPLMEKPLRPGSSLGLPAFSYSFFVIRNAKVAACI
T1 sequence (Q9Y251 36-109 limits assumed): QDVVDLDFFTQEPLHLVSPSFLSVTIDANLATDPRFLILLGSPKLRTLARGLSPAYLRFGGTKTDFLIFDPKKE
The experiment in a line: Fondaparinux heparanase assay (AGA*IA assay), colorimetric WST-1. In kind it is biochemical. As to conditions: 2.5 nM heparanase, 100 µM fondaparinux, pH 5.0, 3 h at 37°C. How it is done: In order to determinate their activity as potent heparanase inhibitor, compounds were tested in a simple, accurate and robust microplate assay based on the cleavage of the synthetic heparin fragment, the pentasaccharide Fondaparinux (AGA*IA). This assay was originally developed by Hammond and coworkers [Hammond E, Li CP, Ferro V. Development of a colorimetric assay for heparanase activity suitable for kinetic analysis and inhibitor screening. Anal. Biochem. 2010, 396(1), 112-116], where Fondaparinux corresponds to the methyl glycoside of the antithrombin III (ATIII)-activating pentasaccharide sequence of heparin. Fondaparinux is cleaved by heparanase to generate a reducing disaccharide, which can be quantitatively measured via a colorimetric or a fluorescence assay, the last by the fluorescent sensor polymer-H [Schiemann S, Lühn S, Alban S. Development of both colorimetric and fluorescence heparinase activity assays using fondaparinux as substrate. […]
Assay was carried out with 100 µl/well of assay solution containing 40 mM sodium acetate buffer (pH 5.0), 100 µM fondaparinux, 2.5 nM heparanase and serial dilutions of test compounds (tested in triplicate). […] Then, the absorbance at 560 nm was measured through a microplate reader (Victor 3, Perkin Elmer).
Finally, the measurements were corrected by subtracting both the reagent background and the inner absorbance value of test compound. […]

In experiment [2] the test system is HT1080 (human fibrosarcoma). The experiment in a line: SRB Cell Cytotoxicity Assay. The class given is cell-based. The conditions noted are these: 72h. The text has this: (§1) SRB Cell Cytotoxicity Assay is based on the quantitative staining of cellular proteins by sulforhodamine B (SRB). This assay can be used for high-throughput drug screening (Vichai & Kirkitara, Nature Protocol. 2006, 1, 112). Sulforhodamine B is an anionic aminoxanthene dye that forms an electrostatic complex with the basic amino acid residues of proteins under moderately acid conditions, which provides a sensitive linear response.
(§2) To assess a putative antiproliferative activity of the selected compounds, HT1080 (human fibrosarcoma), U87MG (human glioblastoma astrocytoma) and U2OS (human osteosarcoma) cell lines were treated for 72h, in triplicate, with increasing concentrations of heparanase inhibitors. Inhibition of cell proliferation was then measured by the classical colorimetric SRB Cell Cytotoxicity assay. Absorbance was measured by spectrophotometer at a wavelength of 510 nm and cell proliferation was determined as percent with respect to control cells (cells treated with the vehicle alone). EC50 values were then determined by GraphPad Prism.
(§3) Results are summarized in the following Table 3, reporting the ability of anti-heparanase agents (test compounds) to reduce tumor growth (cytotoxic effect) on three tumor cell lines, evaluated at three concentrations. Results were expressed as a percentage of growth versus control.

The subject of experiment [3] is U2OS (human osteosarcoma). The experiment is described as follows: SRB Cell Cytotoxicity Assay. The class given is cell-based. As to conditions: 72h.
Text: as §1, §2, §3

For experiment [4], the system named is U87MG (human glioblastoma astrocytoma). The experiment in a line: SRB Cell Cytotoxicity Assay. The class given is cell-based. The conditions noted are these: 72h.
Text: as §1, §2, §3

Experiment [5] has the same test system. The experiment is described as follows: Cell adhesion assay on matrigel coated wells. As to conditions: treated 18-20h. In kind it is cell-based. The method, then: Cell surface, non-integrin molecules such as heparan sulfate proteoglycans (HSPGs) may be involved in the regulation of early adhesive stages of cell-ECM interactions. A cell adhesion assay has been employed to determine if the newly designed heparanase inhibitors were able to interfere with adhesion properties of cancer cells.
For the assay set-up, U87MG (human glioblastoma astrocytoma) cells were treated for 18-20h with test compounds, in complete medium supplemented with 10% FCS. Then, cells were collected, washed in complete medium, and added to matrigel coated wells in triplicate, at previously identified optimal seeding density, and incubated at 37 °C in complete medium for times ranging from 15 minutes to 4h (Goldshmidt et al, FASEB, 2003). After incubation, the wells were washed three times with serum-free medium and the remaining firmly attached cells were stained with crystal violet 0.1 reagent. Optical density was measure at 500 nm by Victor 3 (Perkin-Elmer) plate analyzer. Each experiment was repeated three times.

For experiment [6], the system named is luciferase-labelled CAG myeloma cells. As to conditions: NOD/SCID mice, 1000 µg/mouse intraperitoneal twice a day from day 9 to day 29; Figure 2.
Procedure: Briefly, luciferase-labelled CAG myeloma cells (5x106; same cells) were injected subcutaneously into NOD/SCID mice (n=5). Mice were treated with compounds (1000 µg/mouse, injected intraperitoneal twice a day, starting on day 9 of cell inoculation).
Mice were injected with cells on day ONE and the first injection of compounds was given starting on day NINE, twice a day, including weekends. Tumor growth was examined by IVIS imaging prior to the first injection of compounds and once a week thereafter. The experiment was terminated on day TWENTYNINE (Figure 2).
IVIS imaging. Bioluminescent imaging of the luciferase-expressing tumors was performed with a highly sensitive, cooled charge coupled device (CCD) camera mounted in a light-tight specimen box (IVIS; Xenogen Corp., Waltham, MA). Briefly, mice were injected intraperitoneally with D-luciferin substrate at 150 mg/kg, anesthetized and placed onto a stage inside the light-tight camera box, with continuous exposure to isoflurane (EZAnesthesia, Palmer, PA). Light emitted from the bioluminescent cells was detected by the IVIS camera system with images quantified for tumor burden using a log-scale color range set at 5×10^4 to 1×10^7 and measurement of total photon counts per second (PPS) using Living Image software (Xenogen).

“N-desulfated N-acetylated glycol split heparin -(GGGS)3-NH-(CH2)5-NH-Biotin with a substitution degree on the R1 and/or R1' positions of about 7% [SST0761NA1]”: the IC50 in experiment [1] is ~3 nM. In addition, the “Percentage tumor growth versus control HT1080” value in experiment [2] (11.1 µM) was 99.98%; in experiment [2] (33.3 µM) it was 98.83%; in experiment [2] (100 µM), 75.02%. Further, the “Percentage tumor growth versus control U2OS” value was found to be 85.3% in experiment [3] (11.1 µM), 79.5% in experiment [3] (33.3 µM) and 69.3% in experiment [3] (100 µM). Further, the figures for the “Percentage tumor growth versus control U87MG” value in experiment [4] (11.1 µM), in experiment [4] (33.3 µM) and in experiment [4] (100 µM) were 84.47%, 75.00% and 73.23%, respectively. In addition, the figures for the “Test compounds adhesion versus basal (100%)” value in experiment [5] (0.1 µM), in experiment [5] (1 µM) and in experiment [5] (10 µM) were 57.55%, 13.25% and 21.46%, respectively. Besides, the “inhibition of CAG myeloma cell growth” value in experiment [6] was “reached statistical significance”.

In the case of “N-desulfated N-acetylated glycol split heparin -Reducing end-NH-CH2-1,2,3-Triazole-4, N-Glycine-CONH-(CH2)5-NH-Biotin with a substitution degree on the R3 position of about 2 % [SST0764NA1]”, in experiment [1], the IC50 is ~4 nM. Also, the “Percentage tumor growth versus control HT1080” value in experiment [2] (11.1 µM) is given as ~ 100%; in experiment [2] (33.3 µM), ~ 100%; in experiment [2] (100 µM) it was 95.15%. Moreover, the “Percentage tumor growth versus control U2OS” value worked out at 80.70% in experiment [3] (11.1 µM), 76.00% in experiment [3] (33.3 µM) and 66.90% in experiment [3] (100 µM). The results for the “Percentage tumor growth versus control U87MG” value in experiment [4] (11.1 µM), in experiment [4] (33.3 µM) and in experiment [4] (100 µM) were 90.61%, 86.29% and 76.44%, respectively. The “Test compounds adhesion versus basal (100%)” value amounted to 83.21% in experiment [5] (0.1 µM), 19.82% in experiment [5] (1 µM) and 12.79% in experiment [5] (10 µM).
